US6121055A, “Methods and devices for conducting specific binding assays” (priority 1995, dated 2000)
Counter-ions that a name gives are not always drawn.

How the values were obtained:
[1] = cited from earlier work; for SOLUBILITY (in words): Table 1, water; for SOLUBILITY (parts H2O): Table 1, numeric; for SOL. IN PARTS H2O: Table 2
[2] = system: anti-fragment antisera (rat TGF-a c-terminal peptide); experiment: TGF-a RIA: predispensed reactants & methyl cinnamate cushions; format: binding, rabbit
Procedure: (§1) All assays employed as assay vessels 0.4 L microcentrifuge tubes containing 0.25-0.3 L of cushion material. Labeled peptide was produced by chloramine Tiodination (specific activity ranged from 200-500 Ci/g). Unless otherwise specified, all solid phases were prepared using S. aureus suspensions. Centrifugations were for 30-60 seconds in a microcentrifuge at approximately 10,000×g.
(§2) (B) RIA Using Anti-Fragment Antisera and Bioactive Syntheticpeptide as Tracer and Reference Standard, with Methylcinnamate Cushions and Assay Reactants Predispensed.
(§3) Trans-methyl cinnamate (Table 1, item 11, Aldrich Chemical Co., St. Louis, Mo.) was melted by brief heating in a microwave oven just prior to dispensing into assay vessels. The cushion solidified spontaneously at room temperature. The solid phase was prepared as in (A) above in double strength assay buffer (including 4% NP-40 nonionic detergent). This suspension was stable at 4° C. for at least one year. Label cocktail (1.5 L) was prepared using 0.3 L 10×assay buffer (minus nonionic detergent), 0.6 L 10% NP-40, 0.58 L distilled water, and 30 L label concentrate (600,000 CPM) prepared from bioactive synthetic rat TGF-alpha (res. 1-50).
(§4) Into each assay was loaded 50 L of reference standard sample (bioactive, synthetic rat TGF-alpha, res. 1-50), 25 L of label cocktail, followed by 25 L of solid phase suspension. Where indicated, all assay reactants were predispensed and equilibrated for at least 3 days at 4 C prior to initiation of the assay by sample addition and mixing. After the indicated incubation periods, assay vessels were centrifuged and counted using radiation shields (FIG. 3, lacking disk 52) in an gamma counter (Abbott Model 200).

[3] = system: anti-fragment antisera (rat TGF-a c-terminal peptide); experiment: TGF-a RIA: bioactive peptides & methyl cinnamate cushions; format: binding, rabbit
Procedure: as §1, §2, §3, §4
Two temperature and mixing treatments were compared with four incubation times. One treatment consisted of incubating at 32° C., just below the melting temperature of the cushion, and mixing at 15 minute intervals. The second treatment consisted of incubating at 40° C., above the melting temperature of the cushion, with mixing only at initiation of incubation (prior to warming). Both assays yielded low nonspecific binding, high specific binding, and high competition with reference standards, even after only 30 minutes of incubation.

anti-digoxin antibody = experiment: Enzyme immunoassay for digoxin; format: binding, rabbit
From the text: An enzyme-labelled digoxin assay using the method of the present invention is adapted from a commercial digoxin kit (Immunotech, Allston, Mass.). The only changes in reagents are the inclusion of 20% sorbitol in the color developer solution, and the substitution of 50 microliters of Tachisorb-R (Behring Diagnostics, La Jolla, Calif.) for the 500 microliters of precipitating solution (goat-anti rabbit IgG) provided with the kit.
In two mL, screw-top microcentrifuge tubes (Sarstedt, Princeton, N.J.), 1 mL of sorbitol-color developer is dispensed, then overlaid with 0.4 mL of dibutyl phthalate. A 200 microliter assay mixture is prepared by adding 100 microliters of Tachisorb-R, 25 microliters of digoxin-enzyme (alkaline phosphatase) conjugate, 25 microliters of sample (serum-based standards), and 50 microliters of antibody solution. The assay is incubated at room temperature for 15 minutes, centrifuged two minutes at 10,000×g, and further incubated one hour for color development.
Color is measured at 400 nm in a Shimadzu Model UV-160 spectrophotometer. Because of the opacity of the polypropylene tubes, results for each tube are corrected for nonspecific absorbance at 500 nm.

[4] = system: antisera to synthetic hTGF-a (1-50); experiment: RIA for human TGF-a using antisera recognizing the complete, bioactive synthetic hormone; format: binding, rabbit
Procedure: (D) RIA for Human TGF-a Using Antisera Recognizing the Complete, Bioactive Synthetic Hormone Synthesis of hTGF-a (1-50) Peptide and Immunization:
The sequence of human TGF-a as determined by DeRynck et al. (Cell 38:287-297, 1985) was used to synthesize the low molecular weight form of the hormone (residues 1-50) using an automated instrument (Biosearch). The resultant peptide was used to immunize rabbits repeatedly using 0.5 mg of peptide at multiple sites.
The assay used reference standards and radio-iodinated tracer prepared from purified, bioactive synthetic rat TGF-alpha (Peninsula Laboratories, Belmont, Calif.). Label cocktail was prepared by mixing, in 1.5 L total volume, 300 L 10×buffer (0.5 M Hepes, 2 mg/L BSA, 0.2% sodium azide), 600 L 10% nonidet P-40 (Shell Oil Co.), 580 L distilled water, and 30 L of labeled peptide (rTGF-a, 800,000 CPM). The antibody suspension was prepared essentially as described in (A) above. To each 0.4 L tube containg 0.25-0.3 L cushions of butyl phthalate was added 25 L of label cocktail, 50 L of sample, and 25 L of antibody suspension. Where indicated, 10 L of 1M DTT (freshly dissolved in 0.5M sodium bicarbonate) was added to each assay mixture. After mixing, the tubes were incubated overnight at 4° C., then processed as described in (A) except that the detection instrument was a gamma counter (Abbott Model 200).

[5] = REDUCED WITH DTT, 1.25 nM in assay

CCOC(=O)/C=C\C(=O)OCC [DIETHYL MALEATE]
SOLUBILITY (in words) [1]: INSOL

COC(=O)c1ccco1 [METHYL FUROATE]
SOLUBILITY (in words) [1]: SLIGHTLY

COC(=O)CCC(=O)OC [DIMETHYL SUCCINATE]
SOLUBILITY (parts H2O) [1]: 120 parts H2O

synthetic rat TGF-alpha: bioactive, synthetic rat TGF-alpha, res. 1-50
label bound, CPM ([2]; 2.5 nM sample competition, total CPM = 7872): 642 CPM
% OF MAX. BOUND ([2]; 2.5 nM sample, 120 minutes, 37 C): 48.6%
LABEL BOUND ([2]; 2.5 nM sample, 120 minutes, 37 C, N = 6): 8.2%
% bound with 0.3 nM sample ([3]; 30 minutes, 32 C): 21.9%
% bound with 10 nM sample ([3]; 30 minutes, 32 C): 5.6%
% bound with 0.3 nM sample ([3]; 30 minutes, 40 C): 23.8%
% bound with 10 nM sample ([3]; 30 minutes, 40 C): 6.9%
% bound with 0.3 nM sample ([3]; 60 minutes, 32 C): 25.2%
% bound with 10 nM sample ([3]; 60 minutes, 32 C): 6.2%
% bound with 0.3 nM sample ([3]; 60 minutes, 40 C): 29.4%
% bound with 10 nM sample ([3]; 60 minutes, 40 C): 7.1%
% bound with 0.3 nM sample ([3]; 90 minutes, 32 C): 26.2%
% bound with 10 nM sample ([3]; 90 minutes, 32 C): 6.4%
% bound with 0.3 nM sample ([3]; 90 minutes, 40 C): 32.9%
% bound with 10 nM sample ([3]; 90 minutes, 40 C): 7.6%
% bound with 0.3 nM sample ([3]; 120 minutes, 32 C): 25.6%
% bound with 10 nM sample ([3]; 120 minutes, 32 C): 6.1%
% bound with 0.3 nM sample ([3]; 120 minutes, 40 C): 35.8%
% bound with 10 nM sample ([3]; 120 minutes, 40 C): 7.6%

CCOC(=O)CC(C)=O [ETHYL ACETOACETATE]
SOLUBILITY (parts H2O) [1]: 35 parts H2O

CCCCOC(=O)c1ccccc1C(=O)OCCCC [DIBUTYL PHTHALATE]
SOLUBILITY (parts H2O) [1]: 2500 parts H2O

CCCCOC(=O)C=Cc1ccccc1 [BUTYL CINNAMATE]
SOLUBILITY (parts H2O) [1]: 200 parts H2O

C[C@H]1O[C@@H](O[C@H]2[C@@H](O)C[C@H](O[C@H]3[C@@H](O)C[C@H](O[C@H]4CC[C@@]5(C)[C@H](CC[C@@H]6[C@@H]5C[C@@H](O)[C@]5(C)[C@@H](C7=CC(=O)OC7)CC[C@]65O)C4)O[C@@H]3C)O[C@@H]2C)C[C@H](O)[C@@H]1O [digoxin]
ABSORBANCE AT 400 nm (corrected) (anti-digoxin antibody; sample 1.0): 150
ABSORBANCE AT 400 nm (corrected) (anti-digoxin antibody; sample 2.0): 100
ABSORBANCE AT 400 nm (corrected) (anti-digoxin antibody; sample 4.0): 80

CCOC(=O)c1ccccc1O [ETHYL SALICYLATE]
SOLUBILITY (in words) [1]: SLIGHTLY

CCOC(=O)CC(=O)OCC [DIETHYL MALONATE]
SOLUBILITY (parts H2O) [1]: 50 parts H2O

CCOC(=O)[C@H](O)[C@@H](O)C(=O)OCC [DIETHYL L-TARTRATE]
SOLUBILITY (in words) [1]: slightly

[Cl-].[Li+] [LITHIUM CHLORIDE]
SOL. IN PARTS H2O [1]: 1.3 PARTS H2O

COC(=O)c1ccccc1C(=O)OC [DIMETHYL PHTHALATE]
SOLUBILITY (parts H2O) [1]: 232 parts H2O

BIOLOGICAL TGFALPHA: BIOLOGICAL TGFALPHA, PARTIALLY PURIFIED FROM CULTURE FLUIDS (A375 CELLS)
PERCENTAGE OF MAXIMAL BINDING, corrected for nonspecific binding [4, 5]: 63.3%
PERCENTAGE OF MAXIMAL BINDING, corrected for nonspecific binding ([4]; UNREDUCED, 1.25 nM in assay): 89.7%

CC(O)CO (stereo not drawn) [PROPYLENE GLYCOL]
miscibility ([1]; Table 2 comment): MISC WITH H2O, CHCL3

[Br-].[Li+] [LITHIUM BROMIDE]
SOL. IN PARTS H2O [1]: .6 PARTS H2O

COC(=O)c1ccccc1O [METHYL SALICYLATE]
SOLUBILITY (parts H2O) [1]: 1500 parts H2O

CCCCOC(=O)CC(O)(CC(=O)OCCCC)C(=O)OCCCC [BUTYL CITRATE]
SOLUBILITY (in words) [1]: INSOL

COC(=O)c1ccccc1 [METHYL BENZOATE]
SOLUBILITY (in words) [1]: INSOL

COC(=O)C(=O)OC [DIMETHYL OXALATE]
SOLUBILITY (parts H2O) [1]: 17 parts H2O

CCOC(=O)CC(=O)C(=O)OCC [ETHYL OXALACETATE]
SOLUBILITY (in words) [1]: INSOL

CCOC(=O)CC(=O)c1ccccc1 [ETHYL BENZOYLACETATE]
SOLUBILITY (in words) [1]: INSOL

COC(=O)/C=C/c1ccccc1 [METHYL CINNAMATE]
SOLUBILITY (in words) [1]: ALMOST INSOL

CCOC(=O)C=Cc1ccccc1 [ETHYL CINNAMATE]
SOLUBILITY (in words) [1]: INSOL

RTGF, BIOACTIVE: purified, bioactive synthetic rat TGF-alpha (Peninsula Laboratories)
PERCENTAGE OF MAXIMAL BINDING, corrected for nonspecific binding ([4]; REDUCED WITH DTT, 0.15 nM in assay): 93.8%
PERCENTAGE OF MAXIMAL BINDING, corrected for nonspecific binding ([4]; REDUCED WITH DTT, 0.32 nM in assay): 87.1%
PERCENTAGE OF MAXIMAL BINDING, corrected for nonspecific binding ([4]; REDUCED WITH DTT, 0.62 nM in assay): 79.9%
PERCENTAGE OF MAXIMAL BINDING, corrected for nonspecific binding [4, 5]: 74.4%
PERCENTAGE OF MAXIMAL BINDING, corrected for nonspecific binding ([4]; REDUCED WITH DTT, 2.50 nM in assay): 64.9%
PERCENTAGE OF MAXIMAL BINDING, corrected for nonspecific binding ([4]; REDUCED WITH DTT, 5.00 nM in assay): 47.3%
PERCENTAGE OF MAXIMAL BINDING, corrected for nonspecific binding ([4]; UNREDUCED, 0.15 nM in assay): 83.2%
PERCENTAGE OF MAXIMAL BINDING, corrected for nonspecific binding ([4]; UNREDUCED, 0.32 nM in assay): 77.3%
PERCENTAGE OF MAXIMAL BINDING, corrected for nonspecific binding ([4]; UNREDUCED, 0.62 nM in assay): 68.5%
PERCENTAGE OF MAXIMAL BINDING, corrected for nonspecific binding ([4]; UNREDUCED, 1.25 nM in assay): 58.5%
PERCENTAGE OF MAXIMAL BINDING, corrected for nonspecific binding ([4]; UNREDUCED, 2.50 nM in assay): 54.0%
PERCENTAGE OF MAXIMAL BINDING, corrected for nonspecific binding ([4]; UNREDUCED, 5.00 nM in assay): 45.7%
